# System: P388
# Assay: Cytotoxicity against mouse P388 cells
# Assay type: functional
smiles,measurement,value
CONCCCCCCCCCCCCc1cccnc1 [HACHIJODINE A],Activity,2.2 µg/mL
CONCCC(C)CCCCCCCCCc1cccnc1 (configuration not stated) [HACHIJODINE B],Activity,2.2 µg/mL
CONCC(C)CCCCCCCCCCc1cccnc1 (configuration not stated) [HACHIJODINE C],Activity,2.2 µg/mL
CONCCCCCCCCCCC(C)Cc1cccnc1 (configuration not stated) [HACHIJODINE D],Activity,2.2 µg/mL
CN(O)CCCCCCCCCCCCCc1cccnc1 [HACHIJODINE E],Activity,2.3 µg/mL
CN(O)CCCCCCCCC#CCCCCc1cccnc1 [HACHIJODINE F],Activity,1 µg/mL
CN(O)CCCCCCCC/C=C\C#CCCCCc1cccnc1 [HACHIJODINE G],Activity,1 µg/mL

# Source: ChEMBL document CHEMBL1154584, “Hachijodines A-G: seven new cytotoxic 3-alkylpyridine alkaloids from two marine sponges of the genera Xestospongia and amphimedon” (2000)
